One compound from patent publication US12570606B2, “Myeloperoxidase imaging agents” (The General Hospital Corporation, priority 2016, dated 2026) can be followed below.

Data set [1] can be described thus: Pharmacokinetics and biodistribution after i.v. injection. It counts as in vivo, wild-type C57BL/6 mice. The conditions noted are these: for half-life: C57BL/6, mouse, blood, iv, i.v. tail vein. The method, then: The pharmacokinetic and biodistribution of Compound 9 was evaluated in wild-type C57BL/6 mice. After systemic intravenous (i.v.) injection via the tail vein, blood samples were collected to determine clearance rate of Compound 9 from the blood. The major organs of the mouse were harvested and the radioactivity was measured.

The next data set has as its target T1, MPO (Mus musculus, UniProt P11247).
T1 sequence (P11247 139-718): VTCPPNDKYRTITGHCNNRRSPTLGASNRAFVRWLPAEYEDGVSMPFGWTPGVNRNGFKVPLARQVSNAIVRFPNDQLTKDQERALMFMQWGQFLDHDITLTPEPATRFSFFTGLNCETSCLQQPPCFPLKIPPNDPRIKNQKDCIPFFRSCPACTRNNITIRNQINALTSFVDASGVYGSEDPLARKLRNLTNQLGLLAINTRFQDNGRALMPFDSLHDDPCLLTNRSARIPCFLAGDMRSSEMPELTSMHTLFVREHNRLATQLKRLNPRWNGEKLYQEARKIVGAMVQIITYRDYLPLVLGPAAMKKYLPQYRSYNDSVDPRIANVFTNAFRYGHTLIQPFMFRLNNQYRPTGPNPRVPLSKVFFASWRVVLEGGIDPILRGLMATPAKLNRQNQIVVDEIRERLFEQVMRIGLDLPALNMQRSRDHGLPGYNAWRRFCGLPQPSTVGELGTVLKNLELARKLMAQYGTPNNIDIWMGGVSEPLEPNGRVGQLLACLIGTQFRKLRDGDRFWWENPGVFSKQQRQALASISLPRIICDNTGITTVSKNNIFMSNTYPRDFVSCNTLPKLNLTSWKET
As to the kind of experiment: CFA paw inflammation PET imaging and treatment by MPO inhibitor PF-1355. The data set is classed as in vivo. Further details: from tissue; host or cells: inflamed forepaw of living mice (CFA). The conditions noted are these: forepaw, 24 h after CFA emulsion, scan 2 h after tracer. The method, then: Each pair contained one treated and one untreated, number of pairs, n=3. The 1/1 emulsion of CFA/PBS (40 μL) was injected subcutaneously on the dorsal side of one forepaw under isoflurane anesthesia, and PBS (40 μL) was injected on the other forepaw as control. After 1 h, the treated group was given PF-1355 (50 mg/kg) by gavage, then treated every 6 h for another 3 times, and the control group was treated with vehicle (10 mL/kg) accordingly. After 24 h, 300-600 uCi of Compound 9 was injected intravenously. After another 2 h, each pair of the mice was scanned side by side.
After validating the efficacy of the MPO Compound 9 in matrigel experiments, the specificity of the agent in inflammation was investigated. Complete Freund's Adjuvant (CFA) or its emulsion can cause inflammation when injected subcutaneously to the animal. The CFA emulsion was injected to one dorsal side of the forepaw of the mouse and the other side was injected with PBS. After 24 h, Compound 9 was injected intravenously and scanned 2 h after injection. […] To further verify the specificity of the MPO Compound 9, the mice were treated with MPO inhibitor PF-1355 1 h after CFA emulsion injection and continuously every 6 h afterwards for 4 times before injecting the Compound 9. The control group was treated with vehicle after CFA injection. Then each pair of the mice from treated and untreated groups were scanned.

Where two headings read alike, the source gives them in different places.

Regarding `O=C(Cc1c[nH]c2ccc(O)cc12)NC(Cc1c[nH]c2ccc(O)cc12)C(=O)NCCOCCOCC[18F]` (centres unmarked) [Compound 9], the half-life in data set [1] (two-phase exponential decay model, read-out: Blood short (fast) half-life) amounted to 0.26 min; in data set [1] (two-phase exponential decay model, read-out: Blood slow half-life) it was 4.66 min. The “Biodistribution of radioactivity in organs” value in data set [1] (major organs harvested after i.v. injection) was “the liver and kidney showed the highest radioactivity, followed by bone and lymph”. The “Share of clearance accounted for by the fast half-life” value in data set [1] (two-phase exponential decay model) came out at 94.7%. In addition, the “PET signal of CFA side versus vehicle (PBS) injected side” value at MPO worked out at 4 fold.
